Earlier results in patent US11980685B1, “Liquid pharmaceutical formulations of tafamidis” (TaP Pharmaceuticals, AG, priority 2022, dated 2024).
≈ marks a conversion by molar mass, not a printed value. Read-outs that look alike come from different tables or passages of the source.

Legend:
[1] = 20 mg in 3.0 mL, equilibrated 1 h, UHPLC

SMILES | Concentration of tafamidis in saturated solution (solubility) ([1]; FaSSIF) [µg/mL] | Concentration of tafamidis in saturated solution (solubility) ([1]; FeSSIF) [µg/mL] | Concentration of tafamidis in saturated solution (solubility) ([1]; SGF) [µg/mL] | Solubility (pH 2.6, 0.02M Acetate-phosphate buffer) [µg/mL] | Solubility (pH 5.3, 0.02M Acetate-phosphate buffer) [µg/mL] | Solubility (pH 6.3, 0.02M Acetate-phosphate buffer) [µg/mL] | Solubility (pH 7.0, 0.02M Acetate-phosphate buffer) [µg/mL] | Solubility (pH 7.6, 0.02M Acetate-phosphate buffer as printed) [µg/mL] | Solubility (pH 7.8, 0.02M Acetate-phosphate buffer) [µg/mL] | Solubility (pH 8.0, 0.02M Acetate-phosphate buffer) [µg/mL] | Solubility classification per the BCS criteria (statement of the NDA 212161 applicant on Table F)
O=C(O)c1ccc2nc(-c3cc(Cl)cc(Cl)c3)oc2c1 [′441 patent's tafamidis crystal form 1] | 9.0 | 0.6 | 1.5 |  |  |  |  |  |  |  | 
O=C(O)c1ccc2nc(-c3cc(Cl)cc(Cl)c3)oc2c1 [Tafamidis, 2-(3,5-dichlorophenyl)-1,3-benzoxazole-6-carboxylic acid] |  |  |  | <2 | <2 | 2 (≈ 6.49 µM) | 15.8 (≈ 51.3 µM) | 17.5 (≈ 56.8 µM) | 72.8 (≈ 236 µM) | 140 (≈ 454 µM) | poorly soluble drug substance
